Laboratory results reported in article PMC5713249, “PeaTAR1B: Characterization of a Second Type 1 Tyramine Receptor of the American Cockroach, Periplaneta americana” (International Journal of Molecular Sciences, 2017).

What was measured:
PeaTAR1B (PeaTAR1B-HA) [1] = target: T1, PeaTAR1B (PeaTAR1B-HA) (Periplaneta americana, UniProt A0A239QQ38); assay: attenuation of NKH 477-stimulated cAMP, CNG channel / Fluo-4 Ca2+ fluorescence in HEK […] flpTM cells; type: cell-based
T1 construct: stably expressed in HEK 293 flpTM cells
T1 sequence (A0A239QQ38 1-481): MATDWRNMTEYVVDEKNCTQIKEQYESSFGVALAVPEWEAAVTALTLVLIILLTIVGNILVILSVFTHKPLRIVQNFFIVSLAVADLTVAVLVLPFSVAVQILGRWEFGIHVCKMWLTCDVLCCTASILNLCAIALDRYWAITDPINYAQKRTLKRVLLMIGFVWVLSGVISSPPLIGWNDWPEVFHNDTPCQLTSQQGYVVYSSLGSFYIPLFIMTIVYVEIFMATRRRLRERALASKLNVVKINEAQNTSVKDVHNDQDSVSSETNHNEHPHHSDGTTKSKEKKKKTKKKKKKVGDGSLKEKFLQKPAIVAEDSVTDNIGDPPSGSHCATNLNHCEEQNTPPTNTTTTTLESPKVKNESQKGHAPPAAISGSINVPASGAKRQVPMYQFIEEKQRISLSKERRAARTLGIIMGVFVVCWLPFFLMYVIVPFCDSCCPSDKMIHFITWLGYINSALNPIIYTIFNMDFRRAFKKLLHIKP

PeaTAR1B (PeaTAR1B-HA) [2] = target: T1, PeaTAR1B (PeaTAR1B-HA); assay: block of tyramine-induced attenuation of NKH 477-stimulated cAMP, CNG channel / Fluo-4 fluorescence in HEK […] flpTM cells; type: cell-based

| SMILES | EC50 (PeaTAR1B (PeaTAR1B-HA) [1]) | IC50 (PeaTAR1B (PeaTAR1B-HA) [2]) |
| --- | --- | --- |
| NCCc1ccc(O)cc1 [tyramine] | ~6.3 nM | – |
| COC(=O)[C@@H]1[C@H]2C[C@H]3c4[nH]c5ccccc5c4CCN3C[C@@H]2CC[C@@H]1O [yohimbine] | – | 740 nM |
